We go through three compounds from ChEMBL document CHEMBL1141814, “Chiral dihydroxylation of acronycine: absolute configuration of natural cis-1,2-dihydroxy-1,2-dihydroacronycine and cytotoxicity of (1R,2R)- and (1S,2S)-1,2-diacetoxy-1,2-dihydroacronycine” (J Nat Prod, 1999).

In this assay the test system is L1210. Briefly: Cytotoxicity against mouse L1210 cells after 48 hrs by […] assay. The assay is classed as functional, cell-based. The conditions noted are these: L1210, 48 h.
For `COc1cc2c(c3c1c(=O)c1ccccc1n3C)[C@H](OC(C)=O)[C@H](OC(C)=O)C(C)(C)O2`, the IC50 amounted to 3.7 µM.
The value for `COc1cc2c(c3c1c(=O)c1ccccc1n3C)[C@@H](OC(C)=O)[C@@H](OC(C)=O)C(C)(C)O2` was 3.1 µM.
Under `COc1cc2c(c3c1c(=O)c1ccccc1n3C)C=CC(C)(C)O2` [ACRONINE] stands 10.4 µM.

One may read the IC50 as the point on the concentration scale where inhibition reaches its midpoint. A higher IC50 goes with a need for much substance.
